Experiments:
Assay type in all cases: in vivo, Sprague-Dawley rats
[1] = system: GLUT4; assay: Western blot of GLUT4 expression in skeletal muscles of streptozotocin-induced diabetic rats; design: concentration or dose not given beside the values; details: STZ diabetic rats, skeletal muscle, 28 days treatment, versus diabetic control G2
Description: (§1) “To evaluate the antidiabetic potential of the present compositions and its mechanistic role in controlling damages of vital tissues in streptozotocin-induced diabetic rats.”
(§2) • Species: Rats • Strain: Sprague-Dawley • Sex: Male • No. of animals: 36 Animals (n=6 per group) • Body weight: 110-130 g Animal House conditions • Lighting: 12/12-hour light-dark cycle • Temperature: 22±3° C. • Relative Humidity: 40 to 60%
(§3) Acclimatization: Animals have been acclimatized to the animal house environment for 2 weeks. The animal experiments were designed and conducted strictly in accordance with the guidelines of AEC. Streptozotocin (STZ) was freshly prepared in 0.1M citrate buffer (pH 4.5). T2D was induced experimentally by single intraperitoneal (i.p.) injection of low dose STZ (40 mg per kg) to the rats, kept fasted overnight. Animals were unfed for 12 h before the estimation of fasting blood glucose. When the fasting plasma glucose level had become above 250 mg dL-1 in 72 h after STZ administration, STZ treated animals were considered as diabetic and all the experimental animals were then kept without any treatment for a period of 2 weeks. The composition treatment was started on 15th day after STZ injection in the respective groups of rats.
(§4) Test sample was dissolved in water containing 0.1% v/v Dimethyl Sulfoxide (DMSO) for animal treatment. Diabetic rats were then treated with intracerebroventricular (i.c.v.) administration of test samples. The animals were divided in six groups each of which contained six rats:
(§5) Daily food and water consumptions were observed and body weights were taken on a weekly basis. After 72 h of STZ administration, blood was drawn from tail vein of rats and fasting blood glucose was measured by glucometer. On the last day of the experiment, all rats were sacrificed by common method of euthanasia. All animals were unfed for 12 h before being killed. Liver, kidneys, pancreas tissues and skeleton muscles were removed surgically and stored at −80° C. in a deep freezer for western blot analysis.
(§6) GLUT4 and CD38 expressions were evaluated by Western blot. For GLUT4 content analysis, membrane samples were prepared from skeletal muscles and for CD38 protein analysis, liver tissues were used. In Western blot analysis, 25 μg of membrane protein per sample was subjected to Sodium Dodecyl Sulfate (SDS) polyacrylamide gel electrophoresis in parallel with molecular weight markers on a 10% resolving gel. The separated proteins were then transferred to a nitrocellulose membrane in a semidry system. β-tubulin was used to ensure equivalent loading of the gel incubating the same membrane with β-tubulin antibody after stripping.
(§7) Western blotting kit was used for immunodetection, using anti-GLUT4 and anti-CD38 antibodies. Detection was done by the enhanced chemiluminescence method and densitometric quantitation was done by scanning of the autoradiographic GLUT4 and CD38 signals with the help of software. Densitometric scanning was indicated the (percentage of band intensity) of GLUT4 bands and CD38 bands of test samples treated diabetic rats and diabetic control rats. Data were expressed as percentage increase or decrease of intensity of band.
(§8) Each value represents mean±SD (n=6). The significance of in vivo data was analyzed by one-way Anova followed by Dunnet test. P<0.05 was considered as significant.

[2] = system: CD38; assay: Western blot of CD38 expression in liver tissues of streptozotocin-induced diabetic rats; design: % Decrease of CD38 Disease control: concentration or dose not given beside the values; details: STZ diabetic rats; for % Decrease of CD38 Disease control: liver tissue, 28 days treatment, versus diabetic control G2
Description: as §1, §2, §3, §4, §5, §6, §7, §8

[3] = system: CD38; assay: as above; details: STZ diabetic rats, liver tissue, daily treatment for 28 days from day 15 after STZ, densitometry, n=6; normal control 100, diabetic control 112
[4] = system: GLUT4; assay: Western blot of GLUT4 expression in skeletal muscles of streptozotocin-induced diabetic rats; details: STZ diabetic rats, skeletal muscle membrane, daily treatment for 28 days from day 15 after STZ, i.p. (Table 1), densitometry, n=6; normal control 100, diabetic control 80

## CC1=CC(=O)CC(C)(C)[C@@]1(O)/C=C/C(C)=C\C(=O)O [Composition G3, (2Z,4E)-5-[(1S)-1-hydroxy-2,6,6-trimethyl-4-oxocyclohex-2-en-1-yl]-3-methylpenta-2,4-dienoic acid]
[1]
  % Increase of Glut4 over Disease control: 37.5%
[2]; discussion of the Western blot results
  downregulation of CD38 (result in words): not sufficient to give significant results
[2]
  % Decrease of CD38 Disease control: 15.2%
[3]
  Band Intensity of CD38 (%) 45 kDa: 95%
[4]
  Band Intensity of GLUT4 (%) 54 kDa: 110%

## CC(CN)C(=O)O (stereo not drawn) [Composition G4, 3-Aminoisobutyric acid]
[1]
  % Increase of Glut4 over Disease control: 30.0%
[2]
  % Decrease of CD38 Disease control: 11.6%
[3]
  Band Intensity of CD38 (%) 45 kDa: 99%
[4]
  Band Intensity of GLUT4 (%) 54 kDa: 104%

## C[S+]([O-])CCCCN=C=S (stereo not drawn) [Composition G5, 1-isothiocyanato-4-methylsulfinylbutane]
[1]
  % Increase of Glut4 over Disease control: 18.8%
[2]
  % Decrease of CD38 Disease control: 8.9%
[3]
  Band Intensity of CD38 (%) 45 kDa: 102%
[4]
  Band Intensity of GLUT4 (%) 54 kDa: 95%

## O=C(O)CC(=O)C(=O)O [Composition G6, Oxobutanedioic acid]
[1]
  % Increase of Glut4 over Disease control: 27.5%
[2]
  % Decrease of CD38 Disease control: 9.8%
[3]
  Band Intensity of CD38 (%) 45 kDa: 101%
[4]
  Band Intensity of GLUT4 (%) 54 kDa: 102%

## C[C@H](O)C(=O)N[C@@H](Cc1ccccc1)C(=O)O [Composition G7, (2S)-2-[[(2S)-2-hydroxypropanoyl]amino]-3-phenylpropanoic acid]
[1]
  % Increase of Glut4 over Disease control: 32.5%
[2]
  % Decrease of CD38 Disease control: 14.3%
[3]
  Band Intensity of CD38 (%) 45 kDa: 96%
[4]
  Band Intensity of GLUT4 (%) 54 kDa: 106%

## CCCCCCCCCCCCCCC(=O)O [Composition G8, Pentadecanoic acid]
[1]
  % Increase of Glut4 over Disease control: 25.0%
[2]
  % Decrease of CD38 Disease control: 8.0%
[3]
  Band Intensity of CD38 (%) 45 kDa: 103%
[4]
  Band Intensity of GLUT4 (%) 54 kDa: 100%

## CC(C)CC(N)C(=O)NC(CC(C)C)C(=O)O (stereo not drawn) [Composition G9, Dileucine]
[1]
  % Increase of Glut4 over Disease control: 22.5%
[2]
  % Decrease of CD38 Disease control: 11.6%
[3]
  Band Intensity of CD38 (%) 45 kDa: 99%
[4]
  Band Intensity of GLUT4 (%) 54 kDa: 98%

## CC1=C(O)C(=O)C=C2C1=CC=C1[C@@]2(C)CC[C@@]2(C)[C@@H]3C[C@](C)(C(=O)O)CC[C@]3(C)CC[C@]12C [Composition G10, (2R,4aS,6aR,6aS,14aS,14bR)-10-hydroxy-2,4a,6a,6a,9,14a-hexamethyl-11-oxo-1,3,4,5,6,13,14,14b-octahydropicene-2-carboxylic acid]
[1]
  % Increase of Glut4 over Disease control: 18.8%
[2]
  % Decrease of CD38 Disease control: 9.8%
[3]
  Band Intensity of CD38 (%) 45 kDa: 101%
[4]
  Band Intensity of GLUT4 (%) 54 kDa: 95%
